Laboratory results published in PubChem BioAssay (NCI).
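Cultured in 96-well plates, cells were exposed to test compound for 48 hours across five concentrations. GI50 = concentration required for 50% inhibition of growth. Definition used: TGI = concentration required for complete inhibition of growth.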

Tests used:
Assay in all cases: inhibition of tumour cell growth, NCI panel, 48 h
MALME-3M melanoma = tested on: MALME-3M melanoma
UACC-62 melanoma = tested on: UACC-62 melanoma
K-562 leukemia = tested on: K-562 leukemia
SK-MEL-28 melanoma = tested on: SK-MEL-28 melanoma
SK-OV-3 ovarian = tested on: SK-OV-3 ovarian
SF-539 CNS = tested on: SF-539 CNS
KM12 colon = tested on: KM12 colon
CAKI-1 renal = tested on: CAKI-1 renal
SNB-19 CNS = tested on: SNB-19 CNS
PC-3 prostate = tested on: PC-3 prostate

| Compound | GI50 (MALME-3M melanoma) [µM] | TGI (MALME-3M melanoma) [µM] | GI50 (UACC-62 melanoma) [µM] | TGI (UACC-62 melanoma) [µM] | GI50 (K-562 leukemia) [µM] | TGI (K-562 leukemia) [µM] | GI50 (SK-MEL-28 melanoma) [µM] | TGI (SK-MEL-28 melanoma) [µM] | GI50 (SK-OV-3 ovarian) [µM] | TGI (SK-OV-3 ovarian) [µM] | GI50 (SF-539 CNS) [µM] | TGI (SF-539 CNS) [µM] | GI50 (KM12 colon) [µM] | TGI (KM12 colon) [µM] | GI50 (CAKI-1 renal) [µM] | TGI (CAKI-1 renal) [µM] | GI50 (SNB-19 CNS) [µM] | TGI (SNB-19 CNS) [µM] | GI50 (PC-3 prostate) [µM] | TGI (PC-3 prostate) [µM] |
| --- | --- | --- | --- | --- | --- | --- | --- | --- | --- | --- | --- | --- | --- | --- | --- | --- | --- | --- | --- | --- |
| N.N.O=C([O-])P(=O)([O-])[O-].[Na+].[Pt+4] | > 100 | > 100 | > 100 | > 100 | > 100 | > 100 | > 100 | > 100 | > 100 | > 100 | > 100 | > 100 | > 100 | > 100 | > 100 | > 100 | > 100 | > 100 |  |  |
| COC(=O)c1cc(C)c(C)c2c1NC(=O)CNC2=O |  |  |  | > 100 |  | > 100 |  | > 100 |  |  |  | > 100 |  | > 100 |  | > 100 |  |  |  |  |
| N#C/C(=C\c1cc2ccccc2c2ccccc12)c1ccccc1 |  | 19.5 |  | 28.9 |  | 13.7 |  | > 100 |  | 39 |  | 19.8 |  | > 52.3 |  | > 37.8 |  | 45.4 |  |  |
| c1cc[c]([Pb]([c]2ccccc2)[c]2ccccc2)cc1 | 16.7 | 36.6 | 6.1 | 19.8 | 11 | 61.4 | 16.5 | 36.6 | 11.2 | 38.2 | 14.2 | 43.2 | 23.4 | > 100 | 30 | > 100 | 16.5 | 38.7 |  |  |
| COC(=O)c1c(C)[nH]c(/C=C2\N=C(c3ccc[nH]3)C=C2OC)c1C | 0.525 | 2.02 | 0.287 | 0.921 | 0.764 | > 27.5 | 0.685 | 2.36 | 2.69 | > 100 | 0.756 | 2.29 | 0.0938 | 5.67 |  |  | 1.87 | > 100 | 0.349 | > 100 |
| CC(=O)N1C/C(=C\c2ccc(N(C)C)cc2)C(=O)/C(=C/c2ccc(N(C)C)cc2)C1 |  | > 100 |  | > 100 |  | > 100 |  | > 100 |  | > 100 |  | 52.2 |  | > 100 |  | > 100 |  | > 100 |  |  |
| COc1cc2c(c(OC)c1OC)C(=O)[C@@H]1c3ccc([N+](=O)[O-])cc3C(=O)N(CCCBr)[C@H]21 |  |  | > 100 | > 100 | 30.6 | > 100 | 33.1 | > 100 | 22.3 | 74.5 | 11.8 | 38.7 | 25.7 | > 100 | 2 | 14.2 | 22 | > 100 | 13.1 | 55.6 |
| CCCCOC(=O)NC(=O)c1cn(C2CCCCC2)c(=O)[nH]c1=O |  | 80.4 |  | > 100 |  | > 100 |  | > 100 |  | 41.4 |  | 37.9 |  | > 100 |  |  |  | 69.3 |  |  |
